According to US8729120B2, “Adjunctive therapy for depression” (SK Biopharmaceuticals Co., Ltd., priority 2004, dated 2014):

Columns and labels:
Format in all cases: in vivo
[1] = test system: humans; assay: Placebo controlled study in humans, change in total MADRS (ITT, LOCF); conditions: for Change from Baseline in total MADRS, Mean (SD): ITT LOCF, depression rating scale
[2] = test system: Mice; assay: Tetrabenazine Reversal in Mice
[3] = test system: Mice; assay: Tail Suspension in Mice
[4] = test system: Mice; assay: Forced-Swim Test (FST) in Mice
[5] = test system: Rats; assay: Forced-Swim Test (FST) in Rats
[6] = test system: Mice; assay: Reserpine Reversal in Mice
[7] = test system: Mice; assay: Reversal of Isolation-Induced Aggression in Mice

| Compound | Change from Baseline in total MADRS, Mean (SD) ([1]; 20 mg) | antidepressant effects [2] | antidepressant effects [3] | antidepressant effects [4] | Change from Baseline in total MADRS, Mean (SD) ([1]; 200 mg) | Change from Baseline in total MADRS, Mean (SD) ([1]; 400 mg) | decrease in depression rating scores (MADRS) compared to placebo and paroxetine ([1]; Table 1) | antidepressant effects in large placebo controlled study ([1]; compared with Paroxetine) | antidepressant effects [5] | antidepressant effects [6] | antidepressant effects [7] |
| --- | --- | --- | --- | --- | --- | --- | --- | --- | --- | --- | --- |
| Fc1ccc([C@@H]2CCNC[C@H]2COc2ccc3c(c2)OCO3)cc1 (relative stereo) [Paroxetine, trans-(−)-3-[(1,3-benzodioxol-5-yloxy)methyl]-4-(4-fluorophenyl)piperidine, reference compound] | −14.1 (10.71) | – | – | – | – | – | – | – | – | – | – |
| Cl.NC(=O)OC[C@H](N)Cc1ccccc1 [Test Compound, (R)-(beta-amino-benzenepropyl) carbamate monohydrochloric acid] | – | demonstrated antidepressant effects | demonstrated antidepressant effects | demonstrated antidepressant effects | −12.1 (11.12) | −12.4 (11.12) | greater decrease in depression rating scores (MADRS) as compared to placebo but not as great as the active control, paroxetine | significant antidepressant effects | demonstrated antidepressant effects | demonstrated antidepressant effects | demonstrated antidepressant effects |
